Target: T1, NKCC1 (Homo sapiens, UniProt P55011)
T1 construct: endogenous in cells; host or cells: native HEK293 cells
T1 sequence (P55011 1-1212): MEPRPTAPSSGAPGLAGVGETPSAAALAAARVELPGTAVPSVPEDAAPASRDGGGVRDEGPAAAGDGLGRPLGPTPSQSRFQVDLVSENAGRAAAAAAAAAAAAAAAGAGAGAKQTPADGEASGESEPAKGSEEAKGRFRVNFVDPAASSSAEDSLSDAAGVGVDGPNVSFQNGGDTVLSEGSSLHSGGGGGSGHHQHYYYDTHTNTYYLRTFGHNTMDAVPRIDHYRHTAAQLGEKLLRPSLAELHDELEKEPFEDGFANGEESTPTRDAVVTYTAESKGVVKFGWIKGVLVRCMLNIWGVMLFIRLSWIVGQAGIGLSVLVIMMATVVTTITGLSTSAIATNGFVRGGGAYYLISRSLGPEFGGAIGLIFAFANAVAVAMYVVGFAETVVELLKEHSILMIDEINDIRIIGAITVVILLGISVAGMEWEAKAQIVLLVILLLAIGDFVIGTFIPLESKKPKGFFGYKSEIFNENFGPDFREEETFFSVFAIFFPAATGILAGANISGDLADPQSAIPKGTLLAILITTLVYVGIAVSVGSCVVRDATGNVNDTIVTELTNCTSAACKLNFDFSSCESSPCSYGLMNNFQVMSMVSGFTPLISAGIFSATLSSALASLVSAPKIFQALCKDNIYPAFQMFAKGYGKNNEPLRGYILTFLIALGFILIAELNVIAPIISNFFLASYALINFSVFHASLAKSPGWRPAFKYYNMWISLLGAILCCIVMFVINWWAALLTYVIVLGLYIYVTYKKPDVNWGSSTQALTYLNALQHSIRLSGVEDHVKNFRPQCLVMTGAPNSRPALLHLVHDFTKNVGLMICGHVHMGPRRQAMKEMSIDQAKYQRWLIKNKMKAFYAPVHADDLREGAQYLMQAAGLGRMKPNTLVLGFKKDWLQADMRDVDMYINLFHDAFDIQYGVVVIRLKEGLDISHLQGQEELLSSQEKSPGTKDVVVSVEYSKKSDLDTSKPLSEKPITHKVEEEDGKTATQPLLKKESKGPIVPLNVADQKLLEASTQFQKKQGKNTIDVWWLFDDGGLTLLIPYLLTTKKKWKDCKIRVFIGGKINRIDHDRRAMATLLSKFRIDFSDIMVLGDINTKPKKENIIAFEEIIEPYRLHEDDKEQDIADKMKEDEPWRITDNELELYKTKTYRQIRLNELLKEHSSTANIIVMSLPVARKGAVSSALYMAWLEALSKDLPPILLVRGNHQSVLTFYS
Test: NKCC1-mediated K+ influx (83Rb tracer uptake) in native HEK293 cells, hypertonic saline, 100 μM ouabain
Assay type: cell-based
Conditions: HEK293, no drug = 1000, 20 μM bumetanide = 0; for inhibition at 2 µM: read-out: NKCC1 mediated flux inhibition at 2 μM (%); for inhibition at 20 µM: read-out: NKCC1 mediated flux inhibition at 20 μM (%)
Description: The compounds of the invention have been tested for evaluating their potency in inhibiting the NKCC1 channel. The test used is a cellular assay expressing the NKCC1 channel: HEK293 cells are human cells derived from embryonic kidney. The inhibitory activity of the compounds has been evaluated in measuring the modification of the potassium flux at 2 concentrations, as described hereafter in the biological protocol.
HEK293 cells are human cells derived from embryonic kidney. They express at their plasma membranes proteins that transport potassium (K^+). Among these proteins is the Na—K-2Cl cotransporter or NKCC1. This transporter contributes to 40-50% of K^+ influx into the cells. The remaining of K^+ transport is mediated by the Na^+/K^+-ATPase (also known as Na^+ pump or Na^+/K^+ pump), which also contributes some 40-50% of the influx basal flux of 5-10%, which is mainly due to K^+ channels (FIG. 1A). Thus, the HEK293 cell in culture is an ideal model to study the function of NKCC1 and test compounds that inhibits its transport.
The assay to measure NKCC1 function was optimized to obtain the next signal to noise ratio: • a. A slightly hypertonic saline was used to stimulate NKCC1 function. […] By consistent use of this simple manipulation, the NKCC1 signal was enhanced. • b. Ouabain, an inhibitor of the Na^+/K^+ pump, was used at 100 μM. […] A radioactive isotope was used to trace the inward movement of K^+ into the cell (influx). This allowed for highly precise measurements of K^+ influx. Because radioactive isotopes of K^+ had very short half-lives, radioactive isotopes of Rb^+ were used. Rubidium was a monovalent cation which was readily transporter at the K^+ binding site by many transporters and channels. Rb^+ was a congener of K^+, being transported undistinguishably from K^+. ^83Rb (half-life of 83 days) was used since ^86Rb (half-life of 19.6 days) is no longer commercially available. The ^83Rb isotope was used as a tracer, i.e. at a very low amounts to trace the movement of K^+.
K^+ influx measured in native HEK293 was in the range of 7000-9000 pmoles K^+ per mg protein per min. In the presence of 20 μM Ref 1, the flux was reduced to 600-900 pmoles K^+ per mg protein per min. Thus, there was a very solid dynamic range. In each experiment, the flux without Ref 1 was set at 1000 (equivalent to 100.0%) and the flux with 20 μM bumetanide was set at 0 (equivalent to 0%).
For the flux experiments, 35-mm culture dishes were coated with 0.1 mg/mL poly-L-lysine and placed in large 20×20 [square] dishes. For convenience, the poly-L-lysine was placed in the dishes the day before the experiment. Before plating the cells, the poly-L-lysine was aspirated, and each dish washed twice with 1 mL sterile water. Cells from 3 confluent 10-cm dishes were detached with trypsin and resuspended into 49 mL complete medium. Cells (2 mL/35-mm dish) were plated in 24 dishes and allowed to attach for at least 2 hours prior to the flux. This setup allowed the measurement of 8 conditions in triplicates. For the flux, culture medium was aspirated and replaced with 1 mL saline for a preincubation period of 15 min. The saline was aspirated and replaced with 1 mL identical saline containing 0.25 μCi/mL 83Rb for 15 min. Following the uptake period, the radioactive solution was aspirated, and the cells washed 3 times with ice-cold saline. Cells were then lyzed with 500 μl 0.25N NaOH for 1 hour, neutralized with 250 μL glacial acetic acid and 300 μL and 30 μL aliquots were used for μ-scintillation counting and protein assays, respectively. Two 5 μL of each flux solution was used to determine cpm and relate those cpm to nmoles K^+. Potassium influx was expressed in nmoles K^+ per mg protein per min. Note that within an experiment, groups of 3 dishes were separated 2 min apart for easy handling. Also note that since all dishes were plated with a homogeneous cell suspension, and all dishes were identical, the protein content was measured from a subset of dishes. […]

Compound	inhibition at 2 µM	inhibition at 20 µM
CCCCNc1cc(C(=O)OC)cc(S(=N)(=O)NCC2CCN(C(C)=O)CC2)c1Oc1ccccc1 (centres unmarked) [Compound 49, methyl 3-[[(1-acetyl-4-piperidyl)methylamino]sulfonimidoyl]-5-(butylamino)-4-phenoxy-benzoate]	30 to 50%	10 to 30%
CCCCNc1cc(C(=O)OC)cc(S(=N)(=O)NCC2CCN(C)CC2)c1Oc1ccccc1 (centres unmarked) [Compound 50, methyl 3-(butylamino)-5-[[(1-methyl-4-piperidyl)methylamino]sulfonimidoyl]-4-phenoxy-benzoate]	30 to 50%	30 to 50%
CCCCNc1cc(C(=O)O)cc(S(=N)(=O)N2CCCC2)c1Oc1ccccc1 (centres unmarked) [Compound 53, 3-(butylamino)-4-phenoxy-5-(pyrrolidin-1-ylsulfonimidoyl)benzoic acid]	30 to 50%	≥ 75%
CCCCNc1cc(C(=O)O)cc(S(=N)(=O)N2CCCCC2)c1Oc1ccccc1 (centres unmarked) [Compound 54, 3-(butylamino)-4-phenoxy-5-(1-piperidylsulfonimidoyl)benzoic acid]	30 to 50%	≥ 75%
CCCCNc1cc(C(=O)O)cc(S(=N)(=O)N2CCOCC2)c1Oc1ccccc1 (centres unmarked) [Compound 56, 3-(butylamino)-5-(morpholinosulfonimidoyl)-4-phenoxy-benzoic acid]		30 to 50%
CCCCNc1cc(C(=O)O)cc(S(=N)(=O)NCc2ccccc2)c1Oc1ccccc1 (centres unmarked) [Compound 58, 3-[(benzylamino)sulfonimidoyl]-5-(butylamino)-4-phenoxy-benzoic acid]	30 to 50%	≥ 75%
CCCCNc1cc(C(=O)O)cc(S(=N)(=O)N2CCCCCC2)c1Oc1ccccc1 (centres unmarked) [Compound 61, 3-(azepan-1-ylsulfonimidoyl)-5-(butylamino)-4-phenoxy-benzoic acid]	30 to 50%	≥ 75%
CCCCNc1cc(C(=O)O)cc(S(=N)(=O)Nc2cccnc2)c1Oc1ccccc1 (centres unmarked) [Compound 64, 3-(butylamino)-4-phenoxy-5-[(3-pyridylamino)sulfonimidoyl]benzoic acid]	50 to 75%	≥ 75%
CCCCNc1cc(C(=O)O)cc(S(=N)(=O)Nc2cccc(OC)c2)c1Oc1ccccc1 (centres unmarked) [Compound 65, 3-(butylamino)-5-[(3-methoxyanilino)sulfonimidoyl]-4-phenoxy-benzoic acid]	50 to 75%	≥ 75%
CCCCNc1cc(C(=O)O)cc(S(=N)(=O)N2CCC(c3ccccc3)CC2)c1Oc1ccccc1 (centres unmarked) [Compound 66, 3-(butylamino)-4-phenoxy-5-[(4-phenyl-1-piperidyl)sulfonimidoyl]benzoic acid]	30 to 50%	≥ 75%
CCCCNc1cc(C(=O)O)cc(S(=N)(=O)Nc2ccn(C)n2)c1Oc1ccccc1 (centres unmarked) [Compound 67, 3-(butylamino)-5-[[(1-methylpyrazol-3-yl)amino]sulfonimidoyl]-4-phenoxy-benzoic acid]	50 to 75%	≥ 75%
CCCCNc1cc(C(=O)O)cc(S(=N)(=O)NCc2cncnc2)c1Oc1ccccc1 (centres unmarked) [Compound 68, 3-(butylamino)-4-phenoxy-5-[(pyrimidin-5-ylmethylamino)sulfonimidoyl]benzoic acid]	50 to 75%	≥ 75%
CCCCNc1cc(C(=O)O)cc(S(=N)(=O)N2CC3CCC(C2)O3)c1Oc1ccccc1 (centres unmarked) [Compound 69, 3-(butylamino)-5-(8-oxa-3-azabicyclo[3.2.1]octan-3-ylsulfonimidoyl)-4-phenoxy-benzoic acid]	50 to 75%	50 to 75%
CCCCNc1cc(C(=O)O)cc(S(=N)(=O)Nc2cccc(Cl)c2)c1Oc1ccccc1 (centres unmarked) [Compound 70, 3-(butylamino)-5-[(3-chloroanilino)sulfonimidoyl]-4-phenoxy-benzoic acid]	≥ 75%	≥ 75%
CCCCNc1cc(C(=O)O)cc(S(=N)(=O)NCc2cccc(Cl)c2)c1Oc1ccccc1 (centres unmarked) [Compound 71, 3-(butylamino)-5-[[(3-chlorophenyl)methylamino]sulfonimidoyl]-4-phenoxy-benzoic acid]	≥ 75%	≥ 75%

Results, then the compound that gave them:

inhibition at 2 µM	inhibition at 20 µM	Compound
30 to 50%	50 to 75%	CCCCNc1cc(C(=O)O)cc(S(=N)(=O)N(C)C)c1Oc1ccccc1 (centres unmarked) [Compound 52, 3-(butylamino)-5-(dimethylaminosulfonimidoyl)-4-phenoxy-benzoic acid]
	50 to 75%	CCCCNc1cc(C(=O)O)cc(S(=N)(=O)N(C)CC)c1Oc1ccccc1 (centres unmarked) [Compound 55, 3-(butylamino)-5-[[ethyl(methyl)amino]sulfonimidoyl]-4-phenoxy-benzoic acid]
	50 to 75%	CCCCNc1cc(C(=O)O)cc(S(=N)(=O)NCCOC)c1Oc1ccccc1 (centres unmarked) [Compound 59, 3-(butylamino)-5-[(2-methoxyethylamino)sulfonimidoyl]-4-phenoxy-benzoic acid]
10 to 30%	50 to 75%	CCCCNc1cc(C(=O)O)cc(S(=N)(=O)NC2CC2)c1Oc1ccccc1 (centres unmarked) [Compound 60, 3-(butylamino)-5-[(cyclopropylamino)sulfonimidoyl]-4-phenoxy-benzoic acid]
10 to 30%	≥ 75%	CCCCNc1cc(C(=O)O)cc(S(=N)(=O)NCC2CCCCC2)c1Oc1ccccc1 (centres unmarked) [Compound 62, 3-(butylamino)-5-[(cyclohexylmethylamino)sulfonimidoyl]-4-phenoxy-benzoic acid]
	30 to 50%	CCCCNc1cc(C(=O)O)cc(S(=N)(=O)NCC2CCOCC2)c1Oc1ccccc1 (centres unmarked) [Compound 63, 3-(butylamino)-4-phenoxy-5-[(tetrahydropyran-4-ylmethylamino)sulfonimidoyl]benzoic acid]

— US20260374782A1, “NEW COMPOUNDS, PROCESSES FOR PREPARING THE SAME AND THEIR USE AS DRUGS” (B&A ONCOMEDICAL, priority 2022, published 2026)
